Earlier results as cited in patent publication US20060003984A1, “Monobactam compositions and methods of use thereof” (Chiron Corporation, priority 2001, published 2006).

System: Gram-negative bacteria
Conditions: many Gram-negative bacteria

## NC[C@H]1O[C@H](O[C@H]2[C@H](O)[C@@H](O[C@H]3O[C@H](CO)[C@@H](O)[C@H](N)[C@H]3O)[C@H](N)C[C@@H]2N)[C@H](N)C[C@@H]1O [tobramycin]
  concentration effective in inhibiting growth: < 4 µg/mL
